Experimental data from patent US20250145571A1, “AMINO ACID PRODRUGS OF NICORANDIL” (Unicycive Therapeutics, Inc., priority 2023, published 2025).
Like-named read-outs stand apart in the source and are kept apart here.

What was measured:
[1] = Plasma stability, human plasma; format: in vitro ADME; details: for half-life at 1 µM / % PCR (at 60 minutes): 37° C., 1 μM; for % PCR (at 60 minutes): parent compound remaining at 60 minutes
Protocol: (§1) Each test compound and assay control (final concentration of 1 μM) were incubated with human plasma or rat plasma at 37° C. for 0.5, 5, 30 and 60 minutes. The reaction was quenched with ice-cold acetonitrile containing internal standard (cetirizine/tolbutamide/telmisartan) following incubation.

[2] = Intestinal microsomal stability, rat; format: in vitro ADME; details: for half-life at 1 µM / microsomal CLint at 1 µM: rat intestinal microsomes 1 mg/mL protein, NADPH, 37° C.; for microsomal CLint at 1 µM: read-out: CLint (μL/min/mg protein)
Protocol: (§2) Each test compound and assay control (final concentration of […]) were incubated with intestinal microsomes (final protein concentration of 1 mg/mL) from rats, dogs or humans at 37° C. in the presence of NADPH for 0.5, 5, 10, 15, 30 and 60 minutes. The reaction was terminated by adding ice-cold acetonitrile containing internal standard (cetirizine/tolbutamide/telmisartan) at each time point following incubation. Samples were then centrifuged at 4000 rpm for 10 minutes and the supernatant was analyzed by LC-MS/MS. The in vitro half-life (t1/2) and intrinsic clearance (CLint) were calculated for the test compounds and the assay control.

[3] = Intestinal microsomal stability, human; format: in vitro ADME; details: for half-life at 1 µM / microsomal CLint at 1 µM: human intestinal microsomes 1 mg/mL protein, NADPH, 37° C.; for microsomal CLint at 1 µM: read-out: CLint (μL/min/mg protein)
Protocol: as §2

[4] = Plasma stability, rat plasma; format: in vitro ADME; details: for half-life at 1 µM / % PCR (at 60 minutes): 37° C., 1 μM; for % PCR (at 60 minutes): parent compound remaining at 60 minutes
Protocol: as §1

[5] = Liver microsomal stability, dog; format: in vitro ADME; details: for Hepatic Extraction Ratio / Predicted Hepatic CL: dog liver microsomes 0.5 mg/mL, 1 μM, NADPH
Protocol: (§3) Each test compound and assay control (final concentration of 1 μM) were incubated with liver microsomes (final protein concentration of 0.5 mg/mL) from rats, dogs or humans at 37° C. in the presence of NADPH for 0.5, 5, 10, 15, 30 and 60 min. The reaction was terminated by adding ice-cold acetonitrile containing internal standard at each time point following incubation. The samples were then centrifuged at 4000 rpm for 10 minutes and the supernatant was analyzed by LC-MS/MS. The predicted hepatic clearance and the hepatic extraction ratio were calculated for the test compounds and the assay control.

[6] = Liver microsomal stability, human; format: in vitro ADME; details: for Hepatic Extraction Ratio / Predicted Hepatic CL: human liver microsomes 0.5 mg/mL, 1 μM, NADPH
Protocol: as §3

[7] = Liver microsomal stability, rat; format: in vitro ADME; details: for Hepatic Extraction Ratio / Predicted Hepatic CL: rat liver microsomes 0.5 mg/mL, 1 μM, NADPH
Protocol: as §3

[8] = Intestinal microsomal stability, dog; format: in vitro ADME; details: for half-life at 1 µM / microsomal CLint at 1 µM: dog intestinal microsomes 1 mg/mL protein, NADPH, 37° C.; for microsomal CLint at 1 µM: read-out: CLint (μL/min/mg protein)
Protocol: as §2

[9] = Pharmacokinetic study in rats, single oral dose; details: rat, 0.25% sodium CMC
[10] = rat; for AUClast / Cmax / F (%) / Tmax / t1/2 / AUClast (ng * h/mL) / Cmax (ng/mL) / Median Tmax: male, Sprague-Dawley; for AUClast / Cmax / F (%) / Tmax / t1/2 / AUClast (ng * h/mL) / Cmax (ng/mL) / Median Tmax / increase in AUC from 3 mg/kg to 14 mg/kg (in words) / release of nicorandil in vivo (in words): po
[11] = compared to nitrate salt of compound 8

With `C[C@H](NC(=O)OC[n+]1cccc(C(=O)NCCO[N+](=O)[O-])c1)C1CCCCC1.O=[N+]([O-])[O-]` [reference compound] as the compound, how does the half-life at 1 µM [1] read?
The half-life at 1 µM was 31.2 min.

What about the “% PCR (at 60 minutes)” value [1] of the same compound?
The value was 28.7%.

What about the half-life at 1 µM [2] of the same compound?
The half-life at 1 µM was over 60 min.

What about the microsomal CLint at 1 µM [2] of the same compound?
The microsomal CLint at 1 µM was under 6 µL/min/mg.

What about the half-life at 1 µM [3] of the same compound?
The half-life at 1 µM was over 60 min.

And the microsomal CLint at 1 µM [3]?
Its microsomal CLint at 1 µM is 9 µL/min/mg.

What about the half-life at 1 µM [4] of the same compound?
Its half-life at 1 µM is 38.2 min.

What about the “% PCR (at 60 minutes)” value [4] of the same compound?
The value was 36.2%.

What about the “Hepatic Extraction Ratio” value [5] of the same compound?
Its value is 0.84.

And the “Predicted Hepatic CL” value [5]?
The value was 26 mL/min/kg.

And the “Hepatic Extraction Ratio” value [6]?
The value was 0.71.

And the “Predicted Hepatic CL” value [6]?
The value was 15 mL/min/kg.

And the “Hepatic Extraction Ratio” value [7]?
The value was over 0.89.

What about the “Predicted Hepatic CL” value [7] of the same compound?
The value was over 49 mL/min/kg.

What about the half-life at 1 µM [8] of the same compound?
The half-life at 1 µM was over 60 min.

And the microsomal CLint at 1 µM [8]?
Its microsomal CLint at 1 µM is under 6 µL/min/mg.

And the “release of nicorandil in vivo (in words)” value [9]?
Its value is “release nicorandil in vivo”.

Which results are given for `CCCCCCCCCCCC(=O)OC[n+]1cccc(C(=O)NCCO[N+](=O)[O-])c1.[Cl-]` [Compound 10]?
half-life at 1 µM [1]: 1.23 min; % PCR (at 60 minutes) [1]: 0%; release in plasma (in words) [1, 11]: rapidly released; half-life at 1 µM [2]: 26 min; microsomal CLint at 1 µM [2]: 27 µL/min/mg; clearance in intestinal microsomes (in words) ([2]; rat intestinal microsomes, compared to nitrate salt of compound 8 and compounds 11 and 13): high clearance; half-life at 1 µM [3]: 24 min; microsomal CLint at 1 µM [3]: 29 µL/min/mg; clearance in intestinal microsomes (in words) ([3]; human intestinal microsomes, compared to nitrate salt of compound 8 and compounds 11 and 13): high clearance; half-life at 1 µM [4]: 1.59 min; % PCR (at 60 minutes) [4]: 0%; release in plasma (in words) [4, 11]: rapidly released; Hepatic Extraction Ratio [5]: 1.0; Predicted Hepatic CL [5]: 4 mL/min/kg; stability in liver microsomes (in words) ([5]; dog liver microsomes, compared to nitrate salt of compound 8): unstable; AUClast ([10]; in vivo, 3 mg/kg): 5513 ng·h/mL; Cmax ([10]; in vivo, 3 mg/kg): 2226 ng/mL; F (%) ([10]; in vivo, 3 mg/kg): 67%; Tmax ([10]; in vivo, 3 mg/kg): 30 min; t1/2 ([10]; in vivo, 3 mg/kg): 244 min; AUClast (ng * h/mL) ([10]; in vivo, 3 mg/kg, pH 4.5): 26,838 ng * h/mL; Cmax (ng/mL) ([10]; in vivo, 3 mg/kg, pH 4.5): 12,446 ng/mL; Median Tmax ([10]; in vivo, 3 mg/kg, pH 4.5): 15 min; AUClast (ng * h/mL) ([10]; in vivo, 14 mg/kg): 36,526 ng * h/mL; Cmax ([10]; in vivo, 14 mg/kg): 6297 ng/mL; F (%) ([10]; in vivo, 14 mg/kg): 97%; Tmax ([10]; in vivo, 14 mg/kg): 240 min; t1/2 ([10]; in vivo, 14 mg/kg): 164 min; oral bioavailability of nicorandil after oral dosing (in words) ([10]; in vivo): high; increase in AUC from 3 mg/kg to 14 mg/kg (in words) ([10]; in vivo): more than dose proportional; release of nicorandil in vivo (in words) [10]: release nicorandil in vivo; Hepatic Extraction Ratio [6]: 0.90; Predicted Hepatic CL [6]: 19 mL/min/kg; stability in liver microsomes (in words) ([6]; human liver microsomes, compared to nitrate salt of compound 8): unstable; Hepatic Extraction Ratio [7]: 0.84; Predicted Hepatic CL [7]: 46 mL/min/kg; stability in liver microsomes (in words) ([7]; rat liver microsomes, compared to nitrate salt of compound 8): unstable; half-life at 1 µM [8]: 47 min; microsomal CLint at 1 µM [8]: 15 µL/min/mg; clearance in intestinal microsomes (in words) ([8]; dog intestinal microsomes, compared to nitrate salt of compound 8 and compounds 11 and 13): high clearance

Which results are given for `Cc1oc(=O)oc1C[n+]1cccc(C(=O)NCCO[N+](=O)[O-])c1.[Cl-]` [Compound 12]?
AUClast ([10]; in vivo, 3 mg/kg, pH 4.5): 8893 ng·h/mL; Cmax ([10]; in vivo, 3 mg/kg, pH 4.5): 4065 ng/mL; Median Tmax ([10]; in vivo, 3 mg/kg, pH 4.5): 30 min

For `CCOC(=O)[C@H](CCc1ccccc1)N[C@@H](C)C(=O)N1CCC[C@H]1C(=O)O` [Enalapril], which half-life at 1 µM [4] is on record?
The half-life at 1 µM was 18.9 min.

And the “% PCR (at 60 minutes)” value [4]?
Its value is 11.2%.

Which results are given for `O=C(NCCO[N+](=O)[O-])c1cccnc1` [Nicorandil]?
half-life at 1 µM [1]: > 60 min; % PCR (at 60 minutes) [1]: 109%; half-life at 1 µM [4]: > 60 min; % PCR (at 60 minutes) [4]: 114%

Which half-life at 1 µM [2] does the source give for `CCC(C)(C)C(=O)OC[n+]1cccc(C(=O)NCCO[N+](=O)[O-])c1.[Cl-]` [Compound 11] here?
The half-life at 1 µM was over 60 min.

What about the microsomal CLint at 1 µM [2] of the same compound?
The microsomal CLint at 1 µM was 8 µL/min/mg.

And the half-life at 1 µM [3]?
The half-life at 1 µM was over 60 min.

What about the microsomal CLint at 1 µM [3] of the same compound?
The microsomal CLint at 1 µM was under 6 µL/min/mg.

And the “AUClast” value ([10]; in vivo, 3 mg/kg)?
The value was 2289 ng·h/mL.

And the “Cmax” value ([10]; in vivo, 3 mg/kg)?
The value was 1171 ng/mL.

What about the “F (%)” value ([10]; in vivo, 3 mg/kg) of the same compound?
Its value is 28%.

And the “Tmax” value ([10]; in vivo, 3 mg/kg)?
The value was 15 min.

What about the “AUClast (ng * h/mL)” value ([10]; in vivo, 3 mg/kg, pH 4.5) of the same compound?
The value was 22,632 ng * h/mL.

What about the “Cmax (ng/mL)” value ([10]; in vivo, 3 mg/kg, pH 4.5) of the same compound?
Its value is 15,223 ng/mL.

What about the “Median Tmax” value ([10]; in vivo, 3 mg/kg, pH 4.5) of the same compound?
Its value is 15 min.

And the “AUClast” value ([10]; in vivo, 14 mg/kg)?
Its value is 27422 ng·h/mL.

And the “Cmax” value ([10]; in vivo, 14 mg/kg)?
The value was 6245 ng/mL.

And the “F (%)” value ([10]; in vivo, 14 mg/kg)?
Its value is 72%.

What about the “Tmax” value ([10]; in vivo, 14 mg/kg) of the same compound?
Its value is 15 min.

And the “increase in AUC from 3 mg/kg to 14 mg/kg (in words)” value ([10]; in vivo)?
The value was “more than dose proportional”.

And the “release of nicorandil in vivo (in words)” value [10]?
Its value is “release nicorandil in vivo”.

What about the half-life at 1 µM [8] of the same compound?
The half-life at 1 µM was over 60 min.

And the microsomal CLint at 1 µM [8]?
The microsomal CLint at 1 µM was 9 µL/min/mg.

For `CC(C)[N+](C)(CCOC(=O)C1c2ccccc2Oc2ccccc21)C(C)C` [Propantheline Bromide], which half-life at 1 µM [1] is on record?
The half-life at 1 µM was 21.3 min.

And the “% PCR (at 60 minutes)” value [1]?
The value was 9.2%.

Which results are given for `O=C(NCCO[N+](=O)[O-])c1ccc[n+](COC(=O)N2CCCC2C(=O)O)c1.[Cl-]` (stereo not drawn) [Compound 13]?
half-life at 1 µM [2]: > 60 min; microsomal CLint at 1 µM [2]: < 6 µL/min/mg; half-life at 1 µM [3]: > 60 min; microsomal CLint at 1 µM [3]: < 6 µL/min/mg; half-life at 1 µM [8]: > 60 min; microsomal CLint at 1 µM [8]: < 6 µL/min/mg
